These results are taken from patent US8765741B2, “5,6-dihydro-1H-pyridin-2-one compounds” (Anadys Pharmaceuticals, Inc., priority 2007, dated 2014).

In one data set the target is NS5B polymerase (Hepatitis C virus genotype 1b, UniProt P26663). The data set can be described thus: biochemical. The settings on record: NS5B polymerase inhibition; 20 nM enzyme, 75 min at 28° C.; read-out: IC50.
Chain of NS5B polymerase (P26663 2420-3010): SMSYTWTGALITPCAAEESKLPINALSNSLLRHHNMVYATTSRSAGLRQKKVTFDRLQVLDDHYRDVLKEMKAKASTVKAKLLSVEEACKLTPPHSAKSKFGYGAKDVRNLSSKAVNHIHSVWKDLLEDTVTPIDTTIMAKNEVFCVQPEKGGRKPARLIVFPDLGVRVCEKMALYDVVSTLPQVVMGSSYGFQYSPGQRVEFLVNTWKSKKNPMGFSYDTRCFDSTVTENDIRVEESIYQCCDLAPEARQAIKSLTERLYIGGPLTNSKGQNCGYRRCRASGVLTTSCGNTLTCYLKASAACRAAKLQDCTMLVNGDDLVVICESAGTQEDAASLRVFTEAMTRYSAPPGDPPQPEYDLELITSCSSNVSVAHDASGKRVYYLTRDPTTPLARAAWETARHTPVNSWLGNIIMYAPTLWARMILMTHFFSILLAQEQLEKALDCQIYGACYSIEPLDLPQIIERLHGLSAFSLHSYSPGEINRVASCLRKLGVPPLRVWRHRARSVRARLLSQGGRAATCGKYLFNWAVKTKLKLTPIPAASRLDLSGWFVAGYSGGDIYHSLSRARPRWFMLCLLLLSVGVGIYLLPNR
For the molecule `CS(=O)(=O)Nc1ccc2c(c1)S(=O)(=O)N=C(C1=C(O)[C@@H]3[C@H]4CC[C@H](CC4)[C@@H]3N(Cc3ccc(F)cc3)C1=O)N2` (relative stereo) [Example 50, cis-N-{3-[3-(4-Fluoro-benzyl)-6-hydroxy-4-oxo-3-aza-tricyclo[6.2.2.0^2,7]dodec-5-en-5-yl]-1,1-dioxo-1,4-dihydro-1λ^6-benzo[1,2,4]thiadiazin-7-yl}-methanesulfonamide], the 50% inhibitory concentration (IC50) was below 20 nM.
Consider `CS(=O)(=O)Nc1ccc2c(c1)S(=O)(=O)N=C(C1=C(O)[C@@H]3C4CCC(CC4)[C@@H]3N(Cc3ccc(F)cc3)C1=O)N2` [Example 49, N-{3-[(2S,7R)-3-(4-Fluoro-benzyl)-6-hydroxy-4-oxo-3-aza-tricyclo[6.2.2.0^2,7]dodec-5-en-5-yl]-1,1-dioxo-1,4-dihydro-1λ^6-benzo[1,2,4]thiadiazin-7-yl}-methanesulfonamide], for which the IC50 is below 20 nM.
For `NS(=O)(=O)Nc1ccc2c(c1)S(=O)(=O)N=C(C1=C(O)[C@@H]3[C@H]4CC[C@H](C4)[C@@H]3N(Cc3ccc(F)cc3)C1=O)N2` [Example 55, (1R,2S,7R,8S)-N-{3-[3-(4-Fluoro-benzyl)-6-hydroxy-4-oxo-3-aza-tricyclo[6.2.1.0^2,7]undec-5-en-5-yl]-1,1-dioxo-1,4-dihydro-1λ^6-benzo[1,2,4]thiadiazin-7-yl}-sulfamide], the IC50 is below 20 nM.
As for `CS(=O)(=O)Nc1ccc2c(c1)S(=O)(=O)N=C(C1=C(O)[C@@H]3[C@H]4CC[C@H](C4)[C@@H]3N(Cc3ccccc3)C1=O)N2` [Example 56, (1R,2S,7R,8S)-N-[3-(3-Benzyl-6-hydroxy-4-oxo-3-aza-tricyclo[6.2.1.0^2,7]undec-5-en-5-yl)-1,1-dioxo-1,4-dihydro-1λ^6-benzo[1,2,4]thiadiazin-7-yl]-methanesulfonamide], the IC50 is below 20 nM.
Consider `CC(C)CN1C(=O)C(C2=NS(=O)(=O)c3cc(NS(C)(=O)=O)ccc3N2)=C(O)[C@@H]2[C@H]3CC[C@H](C3)[C@@H]21` [Example 57, (1R,2S,7R,8S)-N-[3-(6-Hydroxy-3-isobutyl-4-oxo-3-aza-tricyclo[6.2.1.0^2,7]undec-5-en-5-yl)-1,1-dioxo-1,4-dihydro-1λ^6-benzo[1,2,4]thiadiazin-7-yl]-methanesulfonamide], for which the concentration for half-maximal inhibition (IC50) was 20 to 100 nM.
Consider `CS(=O)(=O)Nc1ccc2c(c1)S(=O)(=O)N=C(C1=C(O)[C@@H]3[C@H]4CC[C@H](C4)[C@@H]3N(Cc3ccc(F)c(Cl)c3)C1=O)N2` [Example 58, (1R,2S,7R,8S)-N-{3-[3-(3-Chloro-4-fluoro-benzyl)-6-hydroxy-4-oxo-3-aza-tricyclo[6.2.1.0^2,7]undec-5-en-5-yl]-1,1-dioxo-1,4-dihydro-1λ^6-benzo[1,2,4]thiadiazin-7-yl}-methanesulfonamide], for which the IC50 was below 20 nM.
On the same count and under the same terms, to `Cc1ccc(CN2C(=O)C(C3=NS(=O)(=O)c4cc(NS(C)(=O)=O)ccc4N3)=C(O)[C@@H]3[C@H]4CC[C@H](C4)[C@@H]32)cc1F` [Example 60, N-{3-[(1R,2S,7R,8S)-3-(3-Fluoro-4-methyl-benzyl)-6-hydroxy-4-oxo-3-aza-tricyclo[6.2.1.0^2,7]undec-5-en-5-yl]-1,1-dioxo-1,4-dihydro-1λ^6-benzo[1,2,4]thiadiazin-7-yl}-methanesulfonamide] belongs 20 to 100 nM; to `O=C1C(C2=NS(=O)(=O)c3cc(Br)cnc3N2)=C(O)C2C([C@@H]3CC[C@H]2C3)N1Cc1ccc(F)cc1` (stereo partly drawn) [Example 61], 1000 to 100000 nM.
In the case of `CS(=O)(=O)Nc1cnc2c(c1)S(=O)(=O)N=C(C1=C(O)[C@@H]3[C@H]4CC[C@H](C4)[C@@H]3N(Cc3ccc(F)cc3)C1=O)N2` [Example 62, N-{3-[(1R,2S,7R,8S)-3-(4-Fluoro-benzyl)-6-hydroxy-4-oxo-3-aza-tricyclo[6.2.1.0^2,7]undec-5-en-5-yl]-1,1-dioxo-1,4-dihydro-1λ^6-pyrido[2,3-e][1,2,4]thiadiazin-7-yl}-methanesulfonamide], the IC50 was 20 to 100 nM.
Consider `O=C1C(C2=NS(=O)(=O)c3cccnc3N2)=C(O)[C@@H]2[C@H]3CC[C@H](C3)[C@@H]2N1Cc1ccc(F)cc1` [Example 63, (1R,2S,7R,8S)-5-(1,1-Dioxo-1,4-dihydro-1λ^6-pyrido[2,3-e][1,2,4]thiadiazin-3-yl)-3-(4-fluoro-benzyl)-6-hydroxy-3-aza-tricyclo[6.2.1.0^2,7]undec-5-en-4-one], for which the IC50 was in the range of 100 to 1000 nM.
On the same count and under the same terms, under `CS(=O)(=O)Nc1ccc2c(c1)S(=O)(=O)N=C(C1=C(O)[C@@H]3[C@H]4CC[C@H](C4)[C@@H]3N(CCC3CC3)C1=O)N2` [Example 66, N-{3-[(1R,2S,7R,8S)-3-(2-Cyclopropyl-ethyl)-6-hydroxy-4-oxo-3-aza-tricyclo[6.2.1.0^2,7]undec-5-en-5-yl]-1,1-dioxo-1,4-dihydro-1λ^6-benzo[1,2,4]thiadiazin-7-yl}-methanesulfonamide] stands 20 to 100 nM.

The test system of a further data set is HCV replicon. The data set can be described thus: HCV replicon assay. In kind it is cell-based. The settings on record: Hepatitis C virus; Example numbers 64 and 65 in Table 1; HCV replicon cells, 72 hours exposure; read-out: EC50 (HCV replicon inhibition). How it is done:
HCV Replicon Assay (Replicon EC50 (μM))
The cell culture component of the assay is performed essentially as described by Bartenschlager et al., Hepatology 2002, 35, 694-703, wherein exponentially growing HCV Huh-7/C24 replicon cells are seeded at 4.5×10^3 cells/well in 96 well plates and 24 hours later are treated with six point half-log concentration of compound. After 72 hours exposure the media is discarded from the compound assay plate and the cell monolayers are lysed by addition of 150 µL lysis mixture (Genospectra) with incubation at 53° C. for 45 minutes. Following incubation, each lysate is thoroughly mixed and 5 µl (NS3 probe) or 10 µL (GAPDH probe) of each lysate is then transferred to the capture plate and analyzed by bDNA assay.
Branched DNA (bDNA) Assay […]
After subsequent addition of the chemilumigenic substrate (dioxetan), each plate is read by luminometer (Wallac 1420 Multilabel HTS Counter Victor 2). The luminescence signal is proportional to the amount of mRNA present in each lysate. In addition to the samples, cell lysate only (no probe) background controls are also included on each bDNA assay plate and the average signal from these control wells is subtracted from the sample reading prior to analysis. Percent of no drug control is determined for both the NS3 and GAPDH signals for each compound also. […]
As to `O=C1C(C2=NS(=O)(=O)c3cnccc3N2)=C(O)[C@@H]2[C@H]3CC[C@H](C3)[C@@H]2N1Cc1ccc(F)cc1` [Example 64, (1R,2S,7R,8S)-5-(1,1-Dioxo-1,4-dihydro-1λ^6-pyrido[4,3-e][1,2,4]thiadiazin-3-yl)-3-(4-fluoro-benzyl)-6-hydroxy-3-aza-tricyclo[6.2.1.0^2,7]undec-5-en-4-one], the EC50 was 100 to 1000 nM.
Turning to `O=C1C(C2=NS(=O)(=O)c3ncccc3N2)=C(O)[C@@H]2[C@H]3CC[C@H](C3)[C@@H]2N1Cc1ccc(F)cc1` [Example 65, (1R,2S,7R,8S)-5-(1,1-Dioxo-1,4-dihydro-1λ^6-pyrido[3,2-e][1,2,4]thiadiazin-3-yl)-3-(4-fluoro-benzyl)-6-hydroxy-3-aza-tricyclo[6.2.1.0^2,7]undec-5-en-4-one], the EC50 was 100 to 1000 nM.

Tested on in the next data set: not given
Test: not given
Details: not given
In the case of `CS(=O)(=O)Nc1ccc2c(c1)S(=O)(=O)N=C(C1=C(O)[C@@H]3[C@H]4CC[C@H](CC4)[C@@H]3N(Cc3ccc(F)cc3)C1=O)N2` (relative stereo) [Example 50, cis-N-{3-[3-(4-Fluoro-benzyl)-6-hydroxy-4-oxo-3-aza-tricyclo[6.2.2.0^2,7]dodec-5-en-5-yl]-1,1-dioxo-1,4-dihydro-1λ^6-benzo[1,2,4]thiadiazin-7-yl}-methanesulfonamide], the melting point was in the range of 203.8 to 205.7 °C.
In turn, `CS(=O)(=O)Nc1ccc2c(c1)S(=O)(=O)N=C(C1=C(O)[C@@H]3C4CCC(CC4)[C@@H]3N(Cc3ccc(F)cc3)C1=O)N2` [Example 49, N-{3-[(2S,7R)-3-(4-Fluoro-benzyl)-6-hydroxy-4-oxo-3-aza-tricyclo[6.2.2.0^2,7]dodec-5-en-5-yl]-1,1-dioxo-1,4-dihydro-1λ^6-benzo[1,2,4]thiadiazin-7-yl}-methanesulfonamide] registered a melting point of 203.8 to 205.7 °C.
